Test results: ChEMBL document CHEMBL1121673, “Diuretic agents related to indapamide. 1. Synthesis and activity of 1-substituted 2-(4-chloro-3-sulfamoylbenzamido)isoindolines” (1981)

Key:
Type in all cases: functional
Rattus norvegicus [1] = test: Total volume of urine excreted during 18 hours after single administration of 5 mg/kg of the test agent (protocol A-2) on 6 rats
[2] = Ratio of amount of Na+ excreted to amount of K+ excreted in urine of rat of protocol A-2 test
Rattus norvegicus [3] = test: Total volume of urine excreted during 4 hr after oral administration of 5 mg/kg of the test agent (protocol B) on 5 male and female rats
Rattus norvegicus [4] = test: Amount of sodium ions excreted during 18 hours after single administration of 5 mg/kg of the test agent (protocol A-1) on 6 rats
Rattus norvegicus [5] = test: Total volume of urine excreted during 18 hours after single administration of 5 mg/kg of the test agent (protocol A-1) on 6 rats
[6] = Ratio of amount of Na+ excreted to amount of K+ excreted in urine of water-loaded rats
Rattus norvegicus [7] = test: Amount of potassium ions excreted during 4 hr after oral administration of 5 mg/kg of the test agent (protocol B) on 5 male and female rats
Rattus norvegicus [8] = test: Amount of potassium ions excreted during 18 hours after single administration of 5 mg/kg of the test agent (protocol A-2) on 6 rats
[9] = Ratio of amount of Na+ excreted to amount of K+ excreted in urine of rat of protocol A-1 test
Rattus norvegicus [10] = test: Amount of sodium ions excreted during 4 hr after oral administration of 5 mg/kg of the test agent (protocol B) on 5 male and female rats
Rattus norvegicus [11] = test: Amount of sodium ions excreted during 18 hours after single administration of 5 mg/kg of the test agent (protocol A-2) on 6 rats
Rattus norvegicus [12] = test: Amount of potassium ions excreted during 18 hours after single administration of 5 mg/kg of the test agent (protocol A-1) on 6 rats
Rattus norvegicus [13] = test: Total volume of urine excreted during 18 hours after single administration of 5 mg/kg of the test agent (protocol A-2) on 11 rats
Rattus norvegicus [14] = test: Amount of sodium ions excreted during 18 hours after single administration of 5 mg/kg of the test agent (protocol A-2) on 11 rats
Rattus norvegicus [15] = test: Amount of potassium ions excreted during 18 hours after single administration of 5 mg/kg of the test agent (protocol A-2) on 11 rats

SMILES | Urine (Rattus norvegicus [1]) | Ratio [2] | Urine (Rattus norvegicus [3]) | Urine Na+ (Rattus norvegicus [4]) | Urine (Rattus norvegicus [5]) | Ratio [6] | Urine K+ (Rattus norvegicus [7]) | Urine K+ (Rattus norvegicus [8]) | Ratio [9] | Urine Na+ (Rattus norvegicus [10]) | Urine Na+ (Rattus norvegicus [11]) | Urine K+ (Rattus norvegicus [12]) | Urine (Rattus norvegicus [13]) | Urine Na+ (Rattus norvegicus [14]) | Urine K+ (Rattus norvegicus [15])
CC1Cc2ccccc2N1NC(=O)c1ccc(Cl)c(S(N)(=O)=O)c1 (stereo not drawn) [INDAPAMIDE] | 16.67 mL | 1.0526 | 130.6 mL | 2.563 m equiv | 12.83 mL | 2.738 | 0.2686 m equiv | 2.78 m equiv | 1.143 | 0.705 m equiv | 2.947 m equiv | 2.198 m equiv |  |  | 
NS(=O)(=O)c1cc(C(=O)NN2Cc3ccccc3C2CO)ccc1Cl (stereo not drawn) |  | 0.943 | 106 mL | 1.622 m equiv | 11.17 mL | 1.638 | 0.1657 m equiv |  | 1.084 | 0.2629 m equiv |  | 1.486 m equiv | 11.45 mL | 1.414 m equiv | 1.512 m equiv
NS(=O)(=O)c1cc(C(=O)NN2Cc3ccccc3C2C(=O)O)ccc1Cl (stereo not drawn) |  | 1.0809 | 87.1 mL | 1.59 m equiv | 9.36 mL | 0.855 | 0.1305 m equiv |  | 0.984 | 0.109 m equiv |  | 1.569 m equiv | 9.36 mL | 2.199 m equiv | 2.075 m equiv
CC1c2ccccc2CN1NC(=O)c1ccc(Cl)c(S(N)(=O)=O)c1 (stereo not drawn) [ZIDAPAMIDE] | 16.17 mL | 1.2204 | 127 mL | 2.193 m equiv | 11.67 mL | 3.11 | 0.2398 m equiv | 2.56 m equiv | 1.128 | 0.6927 m equiv | 3.058 m equiv | 1.976 m equiv |  |  | 
